From PMC4833353 (PLoS Pathogens, 2016)
Values joined by “and” are separate entries in the source; they are usually repeats but may differ in a detail not shown here. Equal entries are not always repeated.

How the values were obtained:
ET CTB [1] = target: T1, ET CTB (Vibrio cholerae serotype O1, UniProt P01556); test: biochemical; assay type: binding; conditions: for Kd: K D
ET CTB [2] = target: T1, ET CTB; assay type: binding

T1 sequence (P01556 22-124 limits assumed): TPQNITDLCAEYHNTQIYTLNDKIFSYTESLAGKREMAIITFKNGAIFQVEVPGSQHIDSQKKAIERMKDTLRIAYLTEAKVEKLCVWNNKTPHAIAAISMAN

| Compound | Kd (ET CTB [1]) | binding of ET CTB to GM1-coated wells after preincubation with ligand (ET CTB [2]) | binding affinity (in words) (ET CTB [1]) | binding to CTB (ET CTB [1]) |
| --- | --- | --- | --- | --- |
| CC(=O)N[C@H]1[C@@H](O[C@H]2[C@@H](O)[C@@H](CO)O[C@@H](O[C@H]3[C@H](O[C@@H]4O[C@@H](C)[C@@H](O)[C@@H](O)[C@@H]4O)[C@@H](O)[C@H](O)O[C@@H]3CO)[C@@H]2O[C@@H]2O[C@@H](C)[C@@H](O)[C@@H](O)[C@@H]2O)O[C@H](CO)[C@H](O)[C@@H]1O [A-penta-HMO, GalNAcα3[Fucα2]Galβ4[Fucα3]Glc] | 4.6 mM and 4.57 mM | interfered with binding of CTB to GM1 |  |  |
| CC(=O)N[C@@H]1[C@@H](O[C@@H]2O[C@@H](C)[C@@H](O)[C@@H](O)[C@@H]2O)[C@H](O[C@@H]2O[C@H](CO)[C@H](O)[C@H](O[C@H]3O[C@H](CO)[C@H](O)[C@H](O)[C@H]3NC(C)=O)[C@H]2O[C@@H]2O[C@@H](C)[C@@H](O)[C@@H](O)[C@@H]2O)[C@@H](CO)O[C@H]1O [A-penta-BGA, GalNAcα3[Fucα2]Galβ4[Fucα3]GlcNAc] | > 30 mM |  | binding very weakly |  |
| GalNAcα3[Fucα2]Galβ3[Fucα4]GlcNAc |  |  |  | very weak to no binding |
